Experimental findings from patent US20090304692A1, “TRIAZINE COMPOUNDS AS PI3 KINASE AND MTOR INHIBITORS” (Wyeth, priority 2008, published 2009) are described below.

In assay [1] the target is PI3K-α (Homo sapiens, UniProt P42336). Put plainly: PI3K-alpha fluorescence polarization assay. Conditions: read-out: IC50 PI3Kα. For orientation: Fluorescence polarisation rises when a labelled molecule tumbles more slowly, as on binding a larger partner.
The target in assay [2] is PI3K-γ (Homo sapiens, UniProt P48736). Nature of the assay: PI3K-gamma fluorescence polarization assay. The settings on record: read-out: IC50 PI3Kγ.
For assay [3], the system named is human breast MDA-MB-361 tumor cell line. Put plainly: In vitro cell culture growth assay (MTS), MDA-MB-361. The settings on record: Homo sapiens, MDA-MB-361, 72 h. Format: cell-based.
Assay [4] has as its system human prostate PC3-mm2 tumor cell line. Put plainly: In vitro cell culture growth assay (MTS), PC3-mm2. It is filed as cell-based. Conditions: Homo sapiens, PC3MM2, 72 h.
Assay [5] addresses Human mTOR (FLAG-TOR) (Homo sapiens, UniProt P42345). Put plainly: mTOR kinase assay (DELFIA format, purified enzyme). It is filed as biochemical.
Setting [6] is: MTS cell growth assay, three days after drug treatment, read-out: IC50 MDA-MB-361.
Setting [7] is: MTS cell growth assay, three days after drug treatment, read-out: IC50 PC3-mm2.
Setting [8] is: MTS cell growth assay, three days after drug treatment, PC3-mm2 cells, read-out: IC50 PC3-mm2.
Where [9] appears, read: MTS cell growth assay, three days after drug treatment, MDA-MB-361 cells, read-out: IC50 MDA-MB-361.

Molecules are shown by their SMILES. Several values for one entry are separate records, joined by “and”; a condition that tells them apart may be missing. Equal entries are not always repeated. Where two headings read alike, the source gives them in different places.

Chain of PI3K-α (P42336 whole entry, species assumed): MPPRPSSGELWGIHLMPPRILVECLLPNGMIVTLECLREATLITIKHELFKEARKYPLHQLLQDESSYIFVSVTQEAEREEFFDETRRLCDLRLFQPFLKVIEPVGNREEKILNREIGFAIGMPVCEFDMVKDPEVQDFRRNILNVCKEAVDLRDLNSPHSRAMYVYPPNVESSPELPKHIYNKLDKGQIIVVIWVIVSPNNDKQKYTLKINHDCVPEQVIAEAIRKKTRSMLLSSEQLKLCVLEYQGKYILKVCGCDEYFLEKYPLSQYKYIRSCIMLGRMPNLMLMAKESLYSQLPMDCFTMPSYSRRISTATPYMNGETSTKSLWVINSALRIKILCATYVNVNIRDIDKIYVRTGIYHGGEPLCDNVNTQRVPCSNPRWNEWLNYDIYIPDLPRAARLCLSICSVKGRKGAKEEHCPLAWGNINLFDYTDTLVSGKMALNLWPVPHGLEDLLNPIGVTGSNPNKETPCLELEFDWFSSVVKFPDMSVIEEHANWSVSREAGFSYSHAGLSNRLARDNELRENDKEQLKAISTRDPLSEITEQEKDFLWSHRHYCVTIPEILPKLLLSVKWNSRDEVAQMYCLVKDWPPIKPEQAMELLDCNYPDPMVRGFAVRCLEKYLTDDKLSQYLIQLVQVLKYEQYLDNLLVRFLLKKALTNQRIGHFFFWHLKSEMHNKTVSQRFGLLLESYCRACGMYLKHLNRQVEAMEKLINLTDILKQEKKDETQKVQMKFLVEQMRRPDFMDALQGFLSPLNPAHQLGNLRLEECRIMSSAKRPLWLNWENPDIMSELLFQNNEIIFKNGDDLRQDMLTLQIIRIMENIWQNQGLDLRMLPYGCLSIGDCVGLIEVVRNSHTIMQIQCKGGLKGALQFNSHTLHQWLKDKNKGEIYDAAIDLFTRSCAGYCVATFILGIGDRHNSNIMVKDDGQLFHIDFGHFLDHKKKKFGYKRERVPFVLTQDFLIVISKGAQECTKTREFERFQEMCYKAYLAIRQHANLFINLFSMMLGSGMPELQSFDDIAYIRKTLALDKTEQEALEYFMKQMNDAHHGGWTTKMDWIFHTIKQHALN
Chain of PI3K-α (P27986 whole entry partner, species assumed): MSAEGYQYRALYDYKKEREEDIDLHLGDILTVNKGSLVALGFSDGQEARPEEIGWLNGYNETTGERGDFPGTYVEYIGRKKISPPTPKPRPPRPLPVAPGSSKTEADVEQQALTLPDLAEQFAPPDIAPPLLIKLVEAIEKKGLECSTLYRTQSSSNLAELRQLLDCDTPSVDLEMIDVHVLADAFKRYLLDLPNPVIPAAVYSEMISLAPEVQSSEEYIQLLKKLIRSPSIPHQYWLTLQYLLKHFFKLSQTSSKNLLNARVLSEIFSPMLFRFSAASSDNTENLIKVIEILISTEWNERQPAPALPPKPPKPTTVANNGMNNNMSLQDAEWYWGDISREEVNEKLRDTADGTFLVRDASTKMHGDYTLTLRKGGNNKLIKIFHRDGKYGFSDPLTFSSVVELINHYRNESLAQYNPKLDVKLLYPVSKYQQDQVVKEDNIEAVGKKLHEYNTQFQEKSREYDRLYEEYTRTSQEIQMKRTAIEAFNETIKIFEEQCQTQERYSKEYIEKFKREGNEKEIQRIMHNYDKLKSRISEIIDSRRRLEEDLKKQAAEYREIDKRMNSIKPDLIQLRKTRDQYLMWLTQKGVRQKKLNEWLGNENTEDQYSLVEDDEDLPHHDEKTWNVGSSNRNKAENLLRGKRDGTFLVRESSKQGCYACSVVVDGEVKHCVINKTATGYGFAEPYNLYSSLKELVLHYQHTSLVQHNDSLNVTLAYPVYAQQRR
Chain of PI3K-γ (P48736 whole entry, species assumed): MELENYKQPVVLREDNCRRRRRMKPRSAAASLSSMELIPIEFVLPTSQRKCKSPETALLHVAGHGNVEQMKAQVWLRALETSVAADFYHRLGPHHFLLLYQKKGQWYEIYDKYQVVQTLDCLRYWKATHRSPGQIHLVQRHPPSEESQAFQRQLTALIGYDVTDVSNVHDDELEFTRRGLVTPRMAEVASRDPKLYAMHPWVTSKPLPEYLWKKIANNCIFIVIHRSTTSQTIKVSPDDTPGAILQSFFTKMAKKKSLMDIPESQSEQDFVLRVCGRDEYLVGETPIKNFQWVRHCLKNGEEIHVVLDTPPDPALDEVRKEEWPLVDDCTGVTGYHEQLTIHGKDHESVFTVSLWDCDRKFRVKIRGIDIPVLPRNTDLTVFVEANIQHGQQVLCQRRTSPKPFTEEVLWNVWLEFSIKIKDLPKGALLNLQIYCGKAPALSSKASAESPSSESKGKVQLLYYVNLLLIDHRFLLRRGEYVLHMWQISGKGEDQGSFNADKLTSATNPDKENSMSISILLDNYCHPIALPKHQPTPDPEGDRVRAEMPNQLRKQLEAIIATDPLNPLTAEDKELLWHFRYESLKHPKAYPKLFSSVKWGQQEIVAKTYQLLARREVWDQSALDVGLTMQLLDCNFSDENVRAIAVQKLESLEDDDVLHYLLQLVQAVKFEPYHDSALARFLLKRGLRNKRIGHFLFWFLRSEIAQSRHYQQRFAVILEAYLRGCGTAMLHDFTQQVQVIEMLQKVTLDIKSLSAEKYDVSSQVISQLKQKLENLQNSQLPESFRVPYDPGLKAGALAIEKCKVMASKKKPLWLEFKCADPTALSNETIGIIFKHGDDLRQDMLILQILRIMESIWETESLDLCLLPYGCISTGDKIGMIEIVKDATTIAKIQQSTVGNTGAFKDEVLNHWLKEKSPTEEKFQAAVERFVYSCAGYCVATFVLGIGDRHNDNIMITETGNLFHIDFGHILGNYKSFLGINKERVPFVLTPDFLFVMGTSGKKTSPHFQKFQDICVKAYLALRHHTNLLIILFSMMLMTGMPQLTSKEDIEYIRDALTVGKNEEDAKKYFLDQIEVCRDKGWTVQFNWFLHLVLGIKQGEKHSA
Chain of Human mTOR (FLAG-TOR) (P42345 1360-2549 limits assumed): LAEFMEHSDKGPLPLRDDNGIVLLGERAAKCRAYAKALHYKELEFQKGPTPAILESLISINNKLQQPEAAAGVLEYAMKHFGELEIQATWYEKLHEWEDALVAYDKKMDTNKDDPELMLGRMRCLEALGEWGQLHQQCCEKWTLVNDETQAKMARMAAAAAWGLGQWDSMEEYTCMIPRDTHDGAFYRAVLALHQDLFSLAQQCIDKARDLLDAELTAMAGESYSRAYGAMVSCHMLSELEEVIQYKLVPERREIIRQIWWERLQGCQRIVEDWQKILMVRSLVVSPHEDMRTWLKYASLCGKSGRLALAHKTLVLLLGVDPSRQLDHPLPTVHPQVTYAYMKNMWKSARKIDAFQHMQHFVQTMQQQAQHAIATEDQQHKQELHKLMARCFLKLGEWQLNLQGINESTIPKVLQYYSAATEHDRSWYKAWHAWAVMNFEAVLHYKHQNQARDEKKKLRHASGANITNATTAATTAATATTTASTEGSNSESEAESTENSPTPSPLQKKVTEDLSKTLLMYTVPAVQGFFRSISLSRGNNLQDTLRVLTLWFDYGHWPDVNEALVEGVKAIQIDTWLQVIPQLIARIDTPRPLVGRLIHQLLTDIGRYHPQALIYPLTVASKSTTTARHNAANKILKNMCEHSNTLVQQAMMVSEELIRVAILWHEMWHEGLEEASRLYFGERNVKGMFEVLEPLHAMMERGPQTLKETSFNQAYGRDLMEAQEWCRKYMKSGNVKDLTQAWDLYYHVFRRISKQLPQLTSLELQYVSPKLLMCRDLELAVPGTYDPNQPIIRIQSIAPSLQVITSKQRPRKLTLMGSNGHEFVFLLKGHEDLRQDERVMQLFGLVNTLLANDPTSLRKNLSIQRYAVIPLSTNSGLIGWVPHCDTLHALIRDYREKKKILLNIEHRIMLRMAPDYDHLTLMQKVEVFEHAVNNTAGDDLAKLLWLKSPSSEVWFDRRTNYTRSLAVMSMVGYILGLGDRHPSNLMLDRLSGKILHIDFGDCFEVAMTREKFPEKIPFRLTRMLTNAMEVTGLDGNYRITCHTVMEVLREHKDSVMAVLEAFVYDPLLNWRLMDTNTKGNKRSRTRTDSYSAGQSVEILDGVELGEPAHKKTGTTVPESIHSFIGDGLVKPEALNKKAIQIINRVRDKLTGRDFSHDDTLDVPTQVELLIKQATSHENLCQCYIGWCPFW

Consider `O=C(Nc1ccncc1)Nc1ccc(-c2nc(NC3CNC3)nc(N3CCOCC3)n2)cc1` [Example 22, 1-{4-[4-(azetidin-3-ylamino)-6-morpholin-4-yl-1,3,5-triazin-2-yl]phenyl}-3-pyridin-4-ylurea], for which the IC50 in assay [1] turned out to be 12 nM; in assay [2], 142 nM; in assay [3] (setting [6]) it was 1420 nM; in assay [4] (setting [7]), 2440 nM; in assay [5] (read-out: IC50 mTOR), 4.75 nM.

`O=C(Nc1ccccc1)Nc1ccc(-c2nc(N3CCOCC3)nc(N3CC4CCC(C3)O4)n2)cc1` [Example 23, 1-{4-[4-morpholin-4-yl-6-(8-oxa-3-azabicyclo[3.2.1]oct-3-yl)-1,3,5-triazin-2-yl]phenyl}-3-phenylurea]: the half-maximal inhibitory concentration (IC50) in assay [1] worked out at 18 nM; in assay [2], 51 nM; in assay [3] (setting [6]), 104 nM; in assay [4] (setting [7]), 147 nM; in assay [5] (read-out: IC50 mTOR) it was 2.05 nM.

For `O=C(Nc1ccc(F)cc1)Nc1ccc(-c2nc(N3CCOCC3)nc(N3CC4CCC(C3)O4)n2)cc1` [Example 24, 1-(4-fluorophenyl)-3-{4-[4-morpholin-4-yl-6-(8-oxa-3-azabicyclo[3.2.1]oct-3-yl)-1,3,5-triazin-2-yl]phenyl}urea], the IC50 in assay [1] came out at 22 nM; in assay [2] it was 99 nM; in assay [3] (setting [6]), 122 nM; in assay [4] (setting [7]), 142 nM; in assay [5] (read-out: IC50 mTOR), 2.7 nM.

Consider `Cc1ccc(NC(=O)Nc2ccc(-c3nc(N4CCOCC4)nc(N4CC5CCC(C4)O5)n3)cc2)cc1` [Example 25, 1-(4-methylphenyl)-3-{4-[4-morpholin-4-yl-6-(8-oxa-3-azabicyclo[3.2.1]oct-3-yl)-1,3,5-triazin-2-yl]phenyl}urea], for which the IC50 in assay [1] came out at 58 nM; in assay [2], 105 nM; in assay [3] (setting [6]), 264 nM; in assay [4] (setting [7]), 258 nM; in assay [5] (read-out: IC50 mTOR) it was 4.05 nM.

In the case of `O=C(Nc1ccncc1)Nc1ccc(-c2nc(N3CCOCC3)nc(N3C4CCC3COC4)n2)cc1` [Example 34, 1-{4-[4-morpholin-4-yl-6-(3-oxa-8-azabicyclo[3.2.1]oct-8-yl)-1,3,5-triazin-2-yl]phenyl}-3-pyridin-4-ylurea], the concentration for half-maximal inhibition (IC50) in assay [1] turned out to be 9 nM; in assay [1] (listed as 669), 8 nM; in assay [2], 95 nM; in assay [2] (listed as 669), 89 nM; in assay [3] (setting [6]), 28 nM; in assay [4] (setting [8]), 41 nM. The IC50 in assay [4] (setting [7]) was 41 nM; in assay [5] (read-out: IC50 mTOR) it was 0.49 nM and 0.48 nM.

`NC(=O)c1ccc(NC(=O)Nc2ccc(-c3nc(N4CCOCC4)nc(N4C5CCC4COC5)n3)cc2)cc1` [Example 35, 4-[({4-[4-morpholin-4-yl-6-(3-oxa-8-azabicyclo[3.2.1]oct-8-yl)-1,3,5-triazin-2-yl]phenyl}carbamoyl)amino]benzamide]: the half-maximal inhibitory concentration (IC50) in assay [1] came out at 6 nM; in assay [1] (listed as 670), 5 nM; in assay [2], 54 nM; in assay [2] (listed as 670), 53 nM; in assay [3] (setting [6]), 22.5 nM; in assay [4] (setting [8]) it was 27.5 nM. In addition, the IC50 in assay [4] (setting [7]) is 27.5 nM; in assay [5] (read-out: IC50 mTOR), 0.21 nM and 0.212 nM.

Turning to `O=C(Nc1ccc(-c2nc(N3CCOCC3)nc(N3C4CCC3COC4)n2)cc1)Nc1cccnc1` [Example 36, 1-{4-[4-morpholin-4-yl-6-(3-oxa-8-azabicyclo[3.2.1]oct-8-yl)-1,3,5-triazin-2-yl]phenyl}-3-pyridin-3-ylurea], the IC50 in assay [1] was found to be 17 nM; in assay [1] (listed as 671), 17.5 nM; in assay [2], 150 nM; in assay [2] (listed as 671), 150 nM; in assay [3] (setting [9]), 73 nM; in assay [3] (setting [6]), 73 nM. Also, the IC50 in assay [4] (setting [8]) is 98 nM; in assay [4] (setting [7]), 98 nM; in assay [5] (read-out: IC50 mTOR) it was 0.51 nM and 0.505 nM.

Turning to `O=C(Nc1ccc(F)cc1)Nc1ccc(-c2nc(N3CCOCC3)nc(N3C4CCC3COC4)n2)cc1` [Example 37, 1-(4-fluorophenyl)-3-{4-[4-morpholin-4-yl-6-(3-oxa-8-azabicyclo[3.2.1]oct-8-yl)-1,3,5-triazin-2-yl]phenyl}urea], the concentration for half-maximal inhibition (IC50) came to 39 nM in assay [1]; 39.5 nM in assay [1] (listed as 672); 155 nM in assay [2]; 154 nM in assay [2] (listed as 672); 98 nM in assay [3] (setting [9]); 98 nM in assay [3] (setting [6]). Further, the half-maximal inhibitory concentration (IC50) is 176 nM in assay [4] (setting [8]), 176 nM in assay [4] (setting [7]) and 1.95 nM in assay [5] (IC50 mTOR).

Regarding `O=C(Nc1ccc(CO)cc1)Nc1ccc(-c2nc(N3CCOCC3)nc(N3C4CCC3COC4)n2)cc1` [Example 38, 1-[4-(hydroxymethyl)phenyl]-3-{4-[4-morpholin-4-yl-6-(3-oxa-8-azabicyclo[3.2.1]oct-8-yl)-1,3,5-triazin-2-yl]phenyl}urea], the 50% inhibitory concentration (IC50) in assay [1] worked out at 7 nM; in assay [2], 91 nM; in assay [2] (listed as 673) it was 98.7 nM; in assay [3] (setting [6]) it was 15 nM; in assay [4] (setting [8]), 28 nM; in assay [4] (setting [7]) it was 28 nM. In assay [5] (read-out: IC50 mTOR), the IC50 is 0.28 nM and 0.43 nM.

With `O=C(Nc1ccc(CCO)cc1)Nc1ccc(-c2nc(N3CCOCC3)nc(N3C4CCC3COC4)n2)cc1` [Example 39, 1-[4-(2-hydroxyethyl)phenyl]-3-{4-[4-morpholin-4-yl-6-(3-oxa-8-azabicyclo[3.2.1]oct-8-yl)-1,3,5-triazin-2-yl]phenyl}urea], the IC50 in assay [1] is 14 nM; in assay [2] it was 75 nM; in assay [2] (listed as 674) it was 74.5 nM; in assay [3] (setting [6]), 22 nM; in assay [4] (setting [8]), 30 nM; in assay [4] (setting [7]), 30 nM. Moreover, in assay [5] (read-out: IC50 mTOR), the 50% inhibitory concentration (IC50) was 0.32 nM and 0.325 nM.

Take `Cc1ccc(NC(=O)Nc2ccc(-c3nc(N4CCOCC4)nc(N4C5CCC4COC5)n3)cc2)cc1` [Example 41, 1-(4-methylphenyl)-3-{4-[4-morpholin-4-yl-6-(3-oxa-8-azabicyclo[3.2.1]oct-8-yl)-1,3,5-triazin-2-yl]phenyl}urea]: the IC50 is 69 nM in assay [1]; 69.5 nM in assay [1] (listed as 676); 122 nM in assay [2]; 167 nM in assay [3] (setting [9]); 167 nM in assay [3] (setting [6]); 301 nM in assay [4] (setting [8]). In addition, the IC50 was found to be 301 nM in assay [4] (setting [7]) and 1.3 nM in assay [5] (read-out: IC50 mTOR).

Turning to `N#Cc1ccc(NC(=O)Nc2ccc(-c3nc(N4CCOCC4)nc(N4C5CCC4COC5)n3)cc2)cc1` [Example 42, 1-(4-cyanophenyl)-3-{4-[4-morpholin-4-yl-6-(3-oxa-8-azabicyclo[3.2.1]oct-8-yl)-1,3,5-triazin-2-yl]phenyl}urea], the half-maximal inhibitory concentration (IC50) came to 86 nM in assay [1]; 86.5 nM in assay [1] (listed as 677); 290 nM in assay [2]; 345 nM in assay [3] (setting [6]); 3600 nM in assay [4] (setting [8]); 3600 nM in assay [4] (setting [7]). Further, the IC50 in assay [5] (read-out: IC50 mTOR) worked out at 3.35 nM.

Regarding `CN1CCN(c2ccc(NC(=O)Nc3ccc(-c4nc(N5CCOCC5)nc(N5C6CCC5COC6)n4)cc3)cc2)CC1` [Example 43, 1-[4-(4-methylpiperazin-1-yl)phenyl]-3-{4-[4-morpholin-4-yl-6-(3-oxa-8-azabicyclo[3.2.1]oct-8-yl)-1,3,5-triazin-2-yl]phenyl}urea], the IC50 in assay [1] was found to be 28 nM; in assay [1] (listed as 229), 19 nM; in assay [1] (listed as 678), 21.3 nM; in assay [2], 35 nM; in assay [2] (listed as 229) it was 70 nM; in assay [2] (listed as 678) it was 45.3 nM. For the same compound, the IC50 in assay [3] (setting [9]) was 35.8 nM; in assay [3] (setting [6]), 35.8 nM; in assay [4] (setting [8]) it was 40 nM; in assay [4] (setting [7]) it was 40 nM; in assay [5] (read-out: IC50 mTOR), 0.77 nM and 1.65 nM and 1.17 nM.

As for `O=C(Nc1ccc(-c2nc(N3CCOCC3)nc(N3CC4CCC(C3)O4)n2)cc1)Nc1cccnc1` [Example 47, 1-{4-[4-morpholin-4-yl-6-(8-oxa-3-azabicyclo[3.2.1]oct-3-yl)-1,3,5-triazin-2-yl]phenyl}-3-pyridin-3-ylurea], the concentration for half-maximal inhibition (IC50) in assay [1] turned out to be 13 nM; in assay [2], 52 nM; in assay [3] (setting [6]), 116 nM; in assay [4] (setting [7]) it was 95 nM; in assay [5] (read-out: IC50 mTOR), 1.6 nM.

For the compound `Cc1cc(NC(=O)Nc2ccc(-c3nc(N4CCOCC4)nc(N4CCOCC4)n3)cc2)ccn1` [Example 49, 1-[4-(4,6-dimorpholin-4-yl-1,3,5-triazin-2-yl)phenyl]-3-(2-methylpyridin-4-yl)urea], the half-inhibitory concentration (IC50) in assay [1] is 3 nM; in assay [2], 21 nM; in assay [3] (setting [6]), 84 nM; in assay [4] (setting [7]) it was 79 nM; in assay [5] (read-out: IC50 mTOR) it was 10 nM and 8.9 nM.

For `O=C(Nc1ccc(CCO)cc1)Nc1ccc(-c2nc(N3CCOCC3)nc(N3CCOCC3)n2)cc1` [Example 50, 1-[4-(4,6-dimorpholin-4-yl-1,3,5-triazin-2-yl)phenyl]-3-[4-(2-hydroxyethyl)phenyl]urea], the half-maximal inhibitory concentration (IC50) came to 1 nM in assay [1]; 21 nM in assay [2]; 36 nM in assay [3] (read-out: IC50 MDA-MB-361, MTS cell growth assay, three days after drug treatment); 39 nM in assay [4] (read-out: IC50 PC3-mm2, MTS cell growth assay, three days after drug treatment); 2 nM in assay [5] (read-out: IC50 mTOR).

The IC50 is the point on the concentration scale where inhibition reaches its midpoint.
